According to US20120328605A1, “COMPOSITIONS AND USES” (priority 2010, published 2012):

Assays:
APPSwe/PS1 mice = assay: T-water maze; type: in vivo
Protocol: Five groups of APPSwe/PS1 mice received one a week for a period of 12 weeks the following treatment: • Gr1: APPSwe/PS1+NaCl 0.9% n(=20), i.p. injections • Gr4: APPSwe/PS1+CRX527 (20 μg/mouse, 130 μl, n=10), i.p. injections • Gr5: […] (50 μg/mouse, 130 μl, n=10), i.p. injections • Gr8 APPSwe/PS1+AS15 ( 1/10th of human dose, 50 μl, n=10), i.m. injections • Gr9: APPSwe/PS1+AS01B ( 1/10th of human dose, 50 μl, n=10), i.m. injections
Mice were tested during the “light on” phase of the day. Behavioral experimenter was blinded to the genetic and treatment status of animals. To assess hippocampal-dependent spatial learning and memory, mice were trained in the T-water maze task. In this paradigm, we evaluate the mouse's ability to remember the spatial location of submerged platform. The T-maze apparatus (length of stem, 64 cm; length of arms, 30 cm; width, 12 cm; height of walls, 16 cm) was made of clear fiberglass and filled with water (23±1° C.) at a height of 12 cm. A platform (11×11 cm) was placed at the end of the target arm and was submerged 1 cm below the surface. The acquisition phase allows to evaluate animals for left-right spatial learning. During the first two trials, platforms were placed on each arms of the maze to test the spontaneous turning preference of the mouse. After these two trials, the least chosen arm was reinforced by the escape platform. The mice were placed in the stem of the T-maze and choose to swim either left or right until they found the submerged platform and escape to it, to a maximum of 60 s. After reaching the platform, the mice remained on it for 20 s and then were immediately placed back in the maze. […] Repeated trials were presented on the same day up to a maximum of 48 trials. A rest period of at least 10-15 min intervened between each block of 10 trials. A mouse was considered to have learned the task when it made no errors in a block of five consecutive trials. […] The number of trials to reach the criterion (five of five correct choices made on consecutive trials) was measured as well as the latency to find the escape platform.

Lineage-CD11b+ monocytes = assay: Monocyte analysis and counting after adjuvant injection in mice; type: in vivo, C57BL/6 mice
Protocol: (§1) 24-Hours after injection of the TLR adjuvants, peripheral blood was drawn from C57BL/6 mice via cardiac puncture with lithium-heparin as anticoagulant. Red blood cell lysis was performed twice on pooled blood with Ammonium Chloride-based Buffer (Sigma, Steinheim, Germany) and cells were counted with the EasyCount™ System (Immunicon). […] Cells were finally washed three times and fixed for 15 min. with a 2% paraformaldehyde solution in PBS. Fluorescence minus one (FMO) controls were always included in the assays for fluorescent compensation setting. Samples were acquired on a flow cytometer (BD FACSCanto II) and data analyzed with the FACSDiva software (BD Biosciences). Monocytes were identified by their Side/Forward scatter properties and gated as CD3-/CD45R/B220-/Ly-6G-/NK1.1-(Lineage-)/CD11b+ cells. CD11b+ monocyte frequency was reported as a percentage of the total cells excluding debris.
as §1, with “24 hours” for “24-Hours”, “each immunomodulator,” for “the TLR adjuvants,”, “min” for “min.”, “monocytes” for “monocyte”

[1] = single i.m. injection, 24 hrs, FIG. 12

Q: Which “behaviour as assessed by T water maze testing” value (APPSwe/PS1 mice; Example 21: twelve weekly injections, CRX527, CRX601 20 μg i.p., 3D MPL 50 μg i.p., AS01B 1/10th human dose i.m., FIG. 24) does the source give for CCCCCCCCCCC[C@H](CC(=O)N[C@H]1[C@H](OC[C@H](NC(=O)C[C@@H](CCCCCCCCCCC)OCCCCCCCCCC)C(=O)O)O[C@H](CO)[C@@H](OP(=O)(O)O)[C@@H]1OC(=O)C[C@@H](CCCCCCCCCCC)OCCCCCCCCCC)OCCCCCCCCCC [CRX601] here?
A: significant improvements in behaviour

Q: What about the “cognitive functions, T-water maze vs PBS-treated control group” value (APPSwe/PS1 mice; Example 22, i.m. 12× weekly: CRX601 2 μg, CRX601 2 ug in AS03, 3D MPL 5 ug, AS01B 1/10 human dose, unpaired t-tests, FIG. 27A) of the same molecule?
A: significant improvement of their cognitive functions

Q: What about the “circulating monocytes numbers following injection” value (Lineage-CD11b+ monocytes; i.m. or i.p. routes, doses of b403, FIG. 9) of the same molecule?
A: Upregulation of circulating monocytes numbers

Q: And the “dose enough to trigger an increase of the monocyte count compared to PBS” value (Lineage-CD11b+ monocytes; [1])?
A: 1 µg

Q: What about the “dose of maximum response (monocyte count)” value (Lineage-CD11b+ monocytes; [1]) of the same molecule?
A: 10 µg

Q: What about the “effect on monocyte count at 20 μg dose” value (Lineage-CD11b+ monocytes; single i.m. injection, FIG. 12) of the same molecule?
A: down modulated
